Patent publication US20140234364A1, “TOTAL SYNTHESIS AND IMM[…] […] OF THE LIPOPOLY[…] NEISSERIA MENINGITIDIS” (MAX-PLANCK-GESELLSCHAFT ZUR FÖRDERUNG DER WISSENSCHAFTEN …, priority 2011, published 2014)

Tested on: female BALB/c mice
Experiment: Immunization of mice in presence of Freund's adjuvant, antibody responses in sera analyzed by glycan microarray
Format: in vivo
Method: To evaluate the immunogenicity of the meningococcal tetrasaccharide 1, two groups of six female BALB/c mice, six to eight weeks old, were immunized subcutaneously (s.c.) in presence of Freund's adjuvant (FA). Each mouse of the first group was immunized s.c. with 0.4 μg unconjugated tetrasaccharide 1 antigen in presence of Freund's adjuvant (priming with Freund's Complete Adjuvant, boosting with Freund's Incomplete Adjuvant, both Sigma). Each mouse of the second group received tetrasaccharide 1-CRM197 conjugate, whereby the amount of conjugate corresponded to 0.4 μg tetrasaccharide 1 antigen. Two weeks after initial immunizations, first boosting injection was performed with 4 μg tetrasaccharide 1 or the corresponding tetrasaccharide 1-CRM197 conjugate.
For all immunizations, antigen was diluted in sterile PBS to a total injection volume of 100 μL per mouse. Blood was collected at the tail vein and erythrocytes were separated from serum by centrifugation. All blood samples from the initial immunization study with FA were diluted with 10 μl sterile PBS before sera separation. Sera were collected in definited time intervals and IgG antibody responses were analyzed by microarray.
Tetrasaccharide 1 in three different concentrations (1, 0.5 and 0.1 mM), CRM197 (1, 0.5 and 0.1 μM) and bovine serum albumin (BSA)-spacer-GlcNAc conjugate (1, 0.5 and 0.1 μM) were dissolved in sodium phosphate buffer (50 mM, pH 8.5) and printed in triplicate robotically using a piezoelectric spotting device (S11, Scienion, Berlin, Germany) onto the surface of the microarray slides (NHS-activated glass slides; CodeLink). BSA-spacer-GlcNAc was used to assess immunogenicity against the spacer moiety of the conjugate. […]
The quenched array slides were blocked for 1 hour with 1% (w/v) BSA in PBS, then washed three times with PBS and dried by centrifugation. […] Then, slides were incubated with fluorescence-labeled detection antibody diluted in 1% BSA-PBS (w/v) for 1 hour at room temperature in a humid chamber. […]

Structure (SMILES): CC(=O)NC1C(O)[C@H](O)C(CO)O[C@@H]1OC1C(O)[C@H](O)C([C@@H](O)CO)O[C@@H]1OC1C(O)[C@@H](O[C@@H]2C(O)C[C@](OCCCCCN)(C(=O)O)OC2[C@H](O)CO)OC([C@@H](O)CO)[C@H]1O (stereo partly drawn) [tetrasaccharide 1, 2-N-acetyl-2-deoxy-α-D-glucopyranosyl-(1→2)-L-glycero-α-D-manno-heptopyranosyl-(1→3)-L-glycero-α-D-manno-heptopyranosyl-(1→5)-2-(5-amino)pentyl-3-deoxy-α-D-manno-oct-2-ulopyranosidonic acid]
- IgG antibody response, anti-tetrasaccharide 1 titers (fluorescence intensity) (1:80 sera dilution, after first boosting, Freund's adjuvant): relatively weak
- Tetrasaccharide 1-specific IgG and IgM antibody responses in pooled sera (after first boosting with 4 μg (4. week), Freund's adjuvant): identified
- IgG response one week after second boosting (second boost 4 μg antigen in week 8, read in week 9): marginal increase
